Experimental data published in US7358091B2, “Device and methods for identifying and treating aspirin non-responsive patients” (Portola Pharmaceuticals, Inc., priority 2004, dated 2008).
Bridge positions count the residues as written; N and C are the ends. Square brackets hold non-standard residues; d marks the D form. Peptide text beside a SMILES is read from it. hArg = N=C(N)NCCCC[C@H](N)C(=O)O; Mpa = O=C(O)CCS

Experiments:
TxB2 generation = assay: TxB2 generation; type: cell-based, human; settings: 325 mg/d ASA for 3 days, compared with baseline, all 5 donors
Method: (§1) The effects of aspirin (normal volunteers were drug free for 2 weeks prior to 325 mg/d ASA for 3 days) and 50% inhibition of P2Y12 on arachidonic acid-induced platelet aggregation in PRP, TxB2 generation, PFA-100 with both Collagen/Epinephrine (CEpi) and Collagen/ADP (CADP) cartridges were evaluated. Arachidonic acid-induced platelet aggregation and TxB2 generation were abolished by aspirin treatment compared with baseline for all 5 donors. […] All donors gave the expected prolongation of the CEpi cartridge after aspirin treatment. In addition, 2 out of 5 donors presented unusual phenotypes (FIG. 6). In donor 1, aspirin increased the CADP closure time, whereas in donor 2, P2Y12 antagonism increased closure time of the CEpi cartridge above the limit defined by the manufacturer for aspirin effect.

[1] = tested on: platelet function under high shear stress; assay: PFA-100 closure time, CEpi and CADP cartridges; type: cell-based, human; settings: 325 mg/d ASA for 3 days
Description: Whole blood was drawn into 3.8% Sodium citrate vacuum tubes and analyzed using the Platelet Function Analyzer (PFA-100). Sample results are based on the platelet function under high shear stress. Platelet adhesion and aggregation are triggered by a biologically active membrane coated with collagen and either epinephrine (EPI) or ADP. Platelets exposed to EPI or ADP under flow conditions are activated on the collagen surface. The time required to full occlusion of an aperture cut in the membrane defines the “closure time” (CT).
as §1

[2] = tested on: mixed platelet/leukocyte aggregates; assay: Arachidonic acid-/shear-induced platelet aggregation assay in whole blood; type: cell-based; settings: 0.8 mM arachidonic acid, 1700/sec followed by 80/sec
Method: FIG. 10 is a schematic representation of the AA/shear-induced thrombotic process utilized in our preliminary study. AA (0.8 mM) is added to citrate-anticoagulated blood (37° C. incubation time=1 minute) then perfused via a silastic tubing to a stenosis (high shear rate, 1700/sec: Hγ) followed by a low shear rate area (80/sec: Lγ). Observation of the mixed platelet/leukocyte aggregates is performed under UV at 10× magnification using a fluorescent microscope.
Platelets are labeled in whole blood with Rhodamine 6G as described above. Following addition of AA, blood will be perfused through 2 successive chambers which generate high (1500/sec) and low (50/sec) shear rates. The high shear rate induces platelet activation and aggregation is created by a sudden decrease in capillary diameter. The low shear rate area allows for the real time evaluation/quantification of the size of the platelet/platelet, platelet/leukocyte aggregates that will pass and/or adhere via the Simple PCI software or similar software capable of evaluating the size of the flowing thrombi.
Large mixed platelet/leukocyte aggregates are detectable in the low shear area (observable after less than 30 seconds) when whole blood is treated with 0.8 mM arachidonic acid and perfusion through a small uncoated circular capillary at 1700/sec followed by a larger capillary at 80/sec. […]

[3] = tested on: platelet aggregation in PRP; assay: Arachidonic acid-induced platelet aggregation in PRP; type: cell-based, human; settings: 325 mg/d ASA for 3 days, compared with baseline, all 5 donors
Method: as §1

[4] = tested on: preformed thrombi on collagen coated surface; assay: Real time thrombosis perfusion chamber assay, destabilization of preformed thrombi; type: cell-based; settings: for effect on preformed thrombi, aspirin background: aspirinated blood over preformed aspirinated thrombi; for mean slope after first perfusion (mSAFP), aspirin background: aspirinated blood, aspirin alone = saline control, eptifibatide; for mean slope after first perfusion (mSAFP), aspirin background / mean slope after first perfusion (mSAFP): 2-MeSAMP 100 μM; for mean slope after first perfusion (mSAFP): untreated blood 210 seconds at 1500/sec, then blood treated with agent, eptifibatide 2.4 μM, Ifetroban 0.3 μM; for effect on preformed thrombi: untreated blood background, second perfusion with agent
Method: Evaluation of the ability of thromboxane receptor (TP) antagonists to destabilize preformed thrombi was performed as followed in the real time thrombosis perfusion chamber assay (monitoring of fluorescently labeled platelets onto collagen coated surface). Untreated samples of blood were first perfused through the collagen-coated perfusion chamber for 210 seconds at 1500/sec. […] In order to evaluate a possible role for PGD2 in mediating thrombus destabilization, aspirinated blood was perfused in presence of PDG2 over preformed aspirinated thrombi.

[5] = tested on: thrombotic process on collagen; assay: Fibrillar type III collagen-coated capillary perfusion chamber at arterial shear rates; type: cell-based, human
Method: In one example of the perfusion chamber assay of the invention, the assay enables the investigator to evaluate thrombotic process under arterial shear rates in less than 15 minutes after blood draw. The simplicity of the perfusion chamber allows for multiple parallel experiments as the thrombogenic surface is deposited inside a regular glass capillary tube. The system is easy to use as only 2 tubings are needed: a proximal tubing to connect the blood sample to the capillary, and a distal tubing which connects the capillary to the pump. A limited amount of blood is required to reconstitute arterial shear rate conditions (4 ml of blood for 1 perfusion chamber). […]
At the end of the perfusion, the capillary is rinsed for 20 sec and fixed with 2.5% phosphate buffered glutaraldehyde for 1 minute. […] An En Face picture located 5 mm downstream of the proximal part of the capillary is taken, and the grey level of each thrombus or platelets located in a window 400 μm long×400 μm wide is measured (Simple PCI software, Compix Inc. Imaging System). Thrombotic deposits were then embedded in Epon, subsequently cross sectioned (at the same location used for measurement of the grey level) and their mean thrombus volume determined. […]

platelet aggregation = assay: Ultegra RPFA-ASA assay in whole blood; type: cell-based, human; settings: aspirin 275 μM added to the blood in vitro; all 5 blood donors; compared with 50% inhibition of P2Y12
Method: Whole blood was drawn into 3.2% Sodium citrate vacuum tubes and analyzed using the Ultegra RPFA-ASA assay. Sample results are based on the extent of platelet aggregation, reported in Aspirin Reaction Units (ARU). ARU≥250 is consistent with no platelet dysfunction, ARU<550 is consistent with platelet dysfunction due to aspirin.
The effects of aspirin (275 μM added to the blood in vitro) and 50% inhibition of P2Y12 (corresponding to the extent of inhibition achieved in patients under PLAVIX (clopidogrel bisulfate) treatment) were evaluated in the RPFA-ASA (n=5). A direct P2Y12 antagonist (5-chloro-N-[({4-[7-fluoro-6-(methylamino)-1-oxoisoquinolin-2(1H)-yl]phenyl}amino)carbonyl]thiophene-2-sulfonamide) is used in vitro at a concentration that inhibits 50% of ADP-induced platelet aggregation in PRP as PLAVIX (clopidogrel bisulfate) cannot be used in vitro (it needs to be metabolized by the liver to generate the active metabolite).

patients = settings: human, in vivo; cited from earlier work
[6] = tested on: thrombotic deposits on type III collagen; assay: Perfusion chamber assay on type III collagen at 1000/sec, end-point grey level; type: cell-based, human; settings: citrate blood, 2 donors before and after aspirin 325 mg/d for 3 days, DMSO-treated and P2Y12 antagonism+epinephrine-treated blood
Method: (§2) FIG. 9 is a representation of the thrombotic deposits formed on type III collagen at 1000/sec in the rectangular perfusion chamber in 2 blood donors, before and after aspirin uptake (325 mg/d for 3 days). Anticoagulated blood (citrate 3.8%, 1:9 v of blood) is collected and added into 5 ml tubes containing either DMSO (vehicle control for the P2Y12 antagonist), a direct P2Y12 antagonist at 5 μM (which totally block the receptor), or a direct P2Y12 antagonist at 5 μM in presence of 20 μM Epinephrine. Anticoagulated blood is perfused through a rectangular capillary (0.2×2 mm, Vitrocom) coated with fibrillar type III collagen at 1000/sec for 4 minutes. Thrombotic deposits are then rinsed for 15 seconds with buffer “C”, fixed for 1 minute in phosphate-buffered glutaraldehyde (2.5%), stained for 45 sec in toluidine blue. Picture is taken at 5 mm from the proximal part of the chamber, and measurement of the grey level performed with Prism software.
A perfusion chamber assay on type III collagen (DMSO (vehicle) treated (a), full P2Y12 antagonism (b), full P2Y12 antagonism with epinephrine 20 μM(c)) have been performed before and 3 days after a daily dose of aspirin (325 mg).

P2Y12-deficient mice [7] = settings: injection of epinephrine in vivo; cited from earlier work
P2Y12-deficient mice [8] = tested on: P2Y12-deficient mice
Description: This phenotype is rescued by the injection of epinephrine in vivo (Andre, P. et al., J Clin Invest, 112(3):398-406 (2003)).

[9] = tested on: thrombus formation on type III collagen; assay: Real time collagen-coated perfusion chamber, kinetics of thrombus formation; type: cell-based, human; settings: 2.5 μM, PPACK-anticoagulated blood, collagen type III-coated capillary
Method: Phe-Pro-Arg-chloromethylketone (PPACK)-anticoagulated blood is added to a tube containing Rhodamine 6-glucose (Rhodamine 6G) (0.2 mg/ml). Five minutes later, blood is perfused through a rectangular capillary mounted on the stage of an inverted microscope (under ultraviolet (UV) light (Rhodamine filter) platelets appear fluorescent). As the blood flows on the collagen type III-coated capillary chamber, platelets adhere and start building a thrombus. Two frames per second are recorded and analyzed for mean fluorescent intensity for the entire perfusion period. At the end of the perfusion, standard deviation in light intensity is plotted against the time by the Prism software.
After blood collection into either citrate or PPACK (4 ml are needed per perfusion chamber) Rhodamine 6G (0.2 mg/mL) is added to the blood and incubated at 37° C. for 5 minutes. Collagen-coated rectangular glass capillaries (Vitrocom) are mounted on the stage of a fluorescent microscope and illuminated under light, UV, or both. […] Platelet collagen interactions and thrombus formation are recorded in real time with the Simple PCI software. The mean fluorescence intensity parallels the kinetics of the thrombotic process, because all platelets are labeled by rhodamine 6G. The kinetics of the thrombotic process is recorded at 2 frames per second for 5 minutes and plotted versus time.

P2Y12 receptor = target: T1, P2Y12 receptor (Homo sapiens, UniProt Q9H244); assay: P2Y12 receptor blockade in vitro in whole blood; type: cell-based; settings: 5 μM
T1 construct: endogenous in cells; host or cells: platelets in citrate-anticoagulated whole blood of blood donors
Method: as §2
Most ACS patients eligible for percutaneous coronary intervention (PCI) are under PLAVIX (clopidogrel bisulfate) therapy. […]

[10] = tested on: aggregation induced by ADP; assay: Aggregation induced by ADP; type: cell-based; settings: 100 μM

T1 sequence (Q9H244 whole entry): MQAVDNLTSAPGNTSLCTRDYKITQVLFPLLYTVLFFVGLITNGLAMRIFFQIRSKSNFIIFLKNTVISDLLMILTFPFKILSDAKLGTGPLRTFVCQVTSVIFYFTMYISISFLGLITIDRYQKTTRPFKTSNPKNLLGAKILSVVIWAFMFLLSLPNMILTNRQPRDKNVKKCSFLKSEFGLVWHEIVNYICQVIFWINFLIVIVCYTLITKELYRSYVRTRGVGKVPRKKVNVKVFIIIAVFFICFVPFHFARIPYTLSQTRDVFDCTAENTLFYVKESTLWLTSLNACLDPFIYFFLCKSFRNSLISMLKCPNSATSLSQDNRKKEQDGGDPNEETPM

Q: For CC(=O)Oc1ccccc1C(=O)O [aspirin], which TxB2 generation (TxB2 generation) is on record?
A: abolished

Q: What about the “PFA-100 closure time, CEpi cartridge” value ([1]; all donors) of the same molecule?
A: prolongation

Q: And the “PFA-100 closure time, CADP cartridge” value ([1]; donor 1 (unusual phenotype))?
A: increased

Q: And the “large mixed platelet/leukocyte aggregates in the low shear area” value [2]?
A: prevented

Q: What about the “arachidonic acid-induced platelet aggregation in PRP” value [3] of the same molecule?
A: abolished

Q: What about the “effect on preformed thrombi, aspirin background” value (from here on “effect … aspirin background”) [4] of the same molecule?
A: slow and moderate destabilization

Q: And the “mean slope after first perfusion (mSAFP), aspirin background” value (from here on “mean slope … aspirin background”) [4]?
A: −1.07±0.3

Q: What about the “antithrombotic effects on collagen in combination with P2Y12 inhibitors” value [5] of the same molecule?
A: synergize

Q: What about the “aspirin effects in RPFA-ASA (Aspirin Reaction Units)” value (platelet aggregation) of the same molecule?
A: smaller than that obtained with 50% inhibition of P2Y12

Q: And the “patients with aspirin-induced asthma” value (patients)?
A: ≤ 20%

Q: And the “reduction of post-acute myocardial infarction (AMI) cardiovascular events” value (patients)?
A: 25-30%

Q: And the “reduction of the incidence of AMI in the acute phase of unstable angina” value (patients)?
A: up to 25%

Q: What about the “thrombotic deposits formed on type III collagen (grey level)” value [6] of the same molecule?
A: aspirin effect is observed

Q: With CCCCC[C@H](O)/C=C/[C@H]1C(=O)C[C@H](O)[C@@H]1C/C=C\CCCC(=O)O [PDG2, PGD2] as the molecule, how does the “effect … aspirin background” value [4] read?
A: significant, spontaneous reversal of thrombosis

Q: Which “protection of P2Y12-deficient mice from vascular occlusion after FeCl3 injury” value (P2Y12-deficient mice [7]) does the source give for CNC[C@H](O)c1ccc(O)c(O)c1 [epinephrine] here?
A: rescued

Q: And the “phenotype of P2Y12-deficient mice in a collagen-coated perfusion chamber” value (P2Y12-deficient mice [8])?
A: correct the phenotype

Q: For N=C(N)NCCCC[C@@H]1NC(=O)CCSSC[C@@H](C(N)=O)NC(=O)[C@@H]2CCCN2C(=O)[C@H](Cc2c[nH]c3ccccc23)NC(=O)[C@H](CC(=O)O)NC(=O)CNC1=O [eptifibatide] ([Mpa][hArg]GDWPC-NH2; disulfide 1-7), which “thrombotic profile (real time kinetics of thrombus formation)” value [9] is on record?
A: flat curve

Q: And the “effect … aspirin background” value [4]?
A: sudden dethrombosis

Q: What about the “mean slope … aspirin background” value [4] of the same molecule?
A: −2.6±0.9

Q: And the “mean slope after first perfusion (mSAFP)” value [4]?
A: 0.17±0.22

Q: What about the “effect on preformed thrombi” value [4] of the same molecule?
A: no apparent destabilization

Q: For CC(C)(C)N/C(=N\C#N)Nc1cccc(/C(=C\CCCC(=O)O)c2cccnc2)c1 [Terbogrel], which “large mixed platelet/leukocyte aggregates in the low shear area” value [2] is on record?
A: prevented

Q: With CNc1cc2ccn(-c3ccc(NC(=O)NS(=O)(=O)c4ccc(Cl)s4)cc3)c(=O)c2cc1F [5-chloro-N-[({4-[7-fluoro-6-(methylamino)-1-oxoisoquinolin-2(1H)-yl]phenyl}amino)carbonyl]thiophene-2-sulfonamide] as the molecule, how does the “blockade of the P2Y12 receptor” value (P2Y12 receptor) read?
A: full blockade

Q: With CSc1nc(N)c2ncn([C@@H]3O[C@H](COP(=O)(O)O)[C@@H](O)[C@H]3O)c2n1 [2-MeSAMP] as the molecule, how does the “aggregation induced by ADP” value [10] read?
A: totally blocks

Q: And the “effect … aspirin background” value [4]?
A: sudden dethrombosis

Q: What about the “mean slope … aspirin background” value [4] of the same molecule?
A: −4.1±0.7

Q: And the “mean slope after first perfusion (mSAFP)” value [4]?
A: −1.8±0.2

Q: And the “effect on preformed thrombi” value [4]?
A: marked dethrombosis

Q: For CCCCCNC(=O)c1coc([C@H]2[C@@H](Cc3ccccc3CCC(=O)O)[C@@H]3CC[C@H]2O3)n1 [Ifetroban], which “effect … aspirin background” value [4] is on record?
A: abolished the destabilization effects

Q: And the “mean slope after first perfusion (mSAFP)” value [4]?
A: −2.5±0.6
